Several values for one entry are separate records, joined by “and”; a condition that tells them apart may be missing. Equal entries are not always repeated. Where two headings read alike, the source gives them in different places.
Columns and labels:
[1] = system: CDK9-specific phosphorylation of RNA polymerase II (RNAPII) on serine 2; assay: In-cell RNAPII phosphorylation (immunoblot); format: cell-based, human; details: Homo sapiens, 3 h
Protocol: (§1) The following cancer cell lines were investigated in the course of these studies: A2780 (ovarian), HCT116 (colon), RPMI8226 (myeloma), SKMel28 (melanoma), Colo205 (colorectal), MDA-MB-435 (melanoma), MDA-MB-453 (breast, carcinoma), MDA-MB-468 (breast, adenocarcinoma), A549 (lung), Raji (lymphoma, Burkitt). Cell lines were obtained from public repositories.
CDK9-specific phosphorylation of RNA polymerase II (RNAPII) on Serine 2 (Ser2). Asynchronous cells were treated with an appropriate concentration of test compound or DMSO as a control. After 3 h incubation (37° C./5% CO2) cells were lysed with CLB-1 lysis buffer (Zeptosense, Switzerland), the lysate was cleared by centrifugation (10 min, 13000 rpm, RT) and subjected to SDS-PAGE. Total protein was blotted on PVDF membranes and analyzed using antibodies against S2-phosphorylated RNAPII (H5; Covance) or total RNAPII (N-20; Santa Cruz) as an expression control. Visualization was conducted using secondary Alexa680- or IR800-coupled antibodies (Molecular Probes) against mouse or rabbit Fc tails on the Odyssey-system (Licor). Specific bands were quantified and IC50 values of inhibition of RNAPII phosphorylation were estimated.

Sk-mel-28 = assay: Cell proliferation, Sk-mel-28; format: cell-based; details: Homo sapiens
Protocol: (§2) The assays used for determining the properties of the kinase inhibitors were performed in accordance with standard procedures well known to those skilled in the art. For example, assays for determining inhibitory activity on CDKs or in cellular assays are described in WO 00/218962, WO 2005/026129, and WO 2005/063765. Solubility assays at pH 7.4 were essentially performed as described by Avdeef, A. in Pharmacokinetic Optimization in Drug Research; Testa, B.; van de Waterbeemd, H.; Folkers, G.; Guy, R. Eds.; Wiley-VHC: Zurich, 2001; pp 305-326. PAMPA permeability assays at pH 7.4 were essentially performed as described in Kansy et al., J. Med. Chem. 41: 1007-10, 1998.
(§3) When compared to IC50s of cellular proliferation by compound I, (as determined by the methods described earlier), the corresponding IC50 for cellular inhibition of CDK9-dependent RNAPII phosphorylation is approximately similar.

HCT116 = assay: Cell proliferation, HCT116; format: cell-based; details: Homo sapiens, HCT-116
Protocol: as §2, §3

[2] = system: HCT116 colon carcinoma cells
Protocol: (§4) Xenograft Tumor-Models: 100 athymic nu/nu female mice (6-8 weeks old) from CRL were allowed to acclimate for 4 days. […] The 3rd passage of cells with approximate 90% confluence was used for these experiments. Briefly, on Day 0, mice were inoculated with 0.1 ml (total 5×10^6 cells) of the respective cell-type as a cell suspension (50×10^6 cells/ml) by subcutaneous injection into the fat pad area near the mammary gland under light anesthesia. When the average tumor weight in all mice reached over 100 mg (day 10), 80 animals with an average tumor size of 130 mg were selected and were randomly divided into 8 groups.
(§5) A 20 G gavage needle was used for the oral treatment.
(§6) Tumor growth and body weight were monitored and recorded three times a week. Tumors were measured by determining the length and width of the tumor with a digital caliper. Tumor weight was estimated using the following formula: Tumor Weight (mg)=(w^2×1)×0.52 where w=width and l=length in mm of the tumor.
(§7) Experimental treatment may cause partial regression (PR) or complete regression (CR) of tumors. PR is defined when the tumor size is 50% or less than the starting (day 1) size but greater than 0.0 mg for three consecutive measurements during the course of the study. CR occurs when there is no measurable tumor mass for three consecutive measurements. Cures are defined when CR are maintained until the completion of the experiment.
(§8) Mice were sacrificed when their tumors reached the 1000 mm^3 endpoint volume. Treatment efficacy was determined as Log Cell Kill (LCK).
(§9) Toxic deaths are defined as deaths caused by compound treatment and not by advanced disease state. […] Non-tumor related deaths after this point are recorded, but not considered toxic deaths.
(§10) Briefly, the empirical distributions of T and Td were derived from B=1000 realisations of random selection of n individual animals with replacement from the set i=1, . . . , n of the appropriate group of mice containing n evaluable animals, estimating the mean tumor size for such selection of animals for each time-point, and linear regression analysis from a semi-log plot of such averages against time. Dead mice and mice with no measurable tumor size were treated as missing data and were ignored when calculating the average.

CDK9 = CDK9 (Homo sapiens, UniProt P50750); assay: Biochemical CDK9 inhibition assay; details: read-out: enzymatic IC50 of CDK9 activity
Protocol: as §2

panel of non-CDK kinases = assay: Inhibitory activity against a panel of non-CDK kinases; format: biochemical
Protocol: as §2

Colo205 = assay: Cell proliferation, Colo205; format: cell-based; details: Homo sapiens, COLO 205
Protocol: as §2, §3

[3] = system: CDK1-dependent Eg-5 phosphorylation on threonine 927; assay: In-cell Eg-5 phosphorylation (immunoblot); format: cell-based, human; details: Homo sapiens, 1 h
Source text: This set of assays represents CDKs involved in cell cycle progression (CDK1, 4/6), and the “regulatory CDK” (CDK9) which is involved in transcriptional regulation.
as §1
CDK1-dependent Eg-5 phosphorylation on threonine 927 (Thr927phos). Thr927phos was investigated by arresting cells over night in G2/M phase with 25 ng/ml nocodazole (optimized final concentration) followed by treatment with DMSO as control or an appropriate concentration of test compound for 1 hour. Detached as well as adherent cells were collected and lysed with CLB-1 lysis buffer. the lysate cleared by centrifugation and subjected to SDS-PAGE. The proteins were blotted on PVDF membranes and subsequently analyzed by antibodies against total Eg-5 (Becton Dickinson) and Eg-5 Thr927phos (Bio legend). Visualization and estimation of IC50 was conducted as above.

CDK4 = CDK4 (Homo sapiens, UniProt P11802); assay: Biochemical CDK4 inhibition assay
Protocol: as §2

MDA-MB-468 = assay: Cell proliferation, MDA-MB-468; format: cell-based; details: Homo sapiens
Protocol: as §2, §3

[4] = system: cell lines A2780, HCT-116, HT-29, HepG2, NCI/ADR-RES, OVCAR3, H460, IMR-90, T98G, A549 among others; assay: Inhibition of proliferation in a set of cancer-model cell lines; format: cell-based; details: read-out: IC50 values, inhibition of proliferation (range over cell lines)
Protocol: as §2

CDK1 = CDK1 (Homo sapiens, UniProt P06493); assay: Biochemical CDK1 inhibition assay
Protocol: as §2

[5] = system: human A2780 ovarian tumor cells
Protocol: as §4, §5, §6, §7, §8, §9, §10

H460 NSCLC = details: H460; for Max % TGI (d): day 13
Protocol: as §4, §5, §6, §7, §8, §9, §10

Chain of CDK1 (P06493 whole entry): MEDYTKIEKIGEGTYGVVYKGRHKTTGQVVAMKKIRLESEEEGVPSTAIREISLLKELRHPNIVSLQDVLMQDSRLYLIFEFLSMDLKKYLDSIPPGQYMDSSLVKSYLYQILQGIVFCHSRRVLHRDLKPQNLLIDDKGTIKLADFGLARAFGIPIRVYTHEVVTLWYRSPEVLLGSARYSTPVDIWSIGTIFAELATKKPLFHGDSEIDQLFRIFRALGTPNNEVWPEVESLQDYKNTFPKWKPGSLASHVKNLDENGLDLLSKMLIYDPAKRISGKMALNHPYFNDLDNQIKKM
Chain of CDK1 (P14635 whole entry partner): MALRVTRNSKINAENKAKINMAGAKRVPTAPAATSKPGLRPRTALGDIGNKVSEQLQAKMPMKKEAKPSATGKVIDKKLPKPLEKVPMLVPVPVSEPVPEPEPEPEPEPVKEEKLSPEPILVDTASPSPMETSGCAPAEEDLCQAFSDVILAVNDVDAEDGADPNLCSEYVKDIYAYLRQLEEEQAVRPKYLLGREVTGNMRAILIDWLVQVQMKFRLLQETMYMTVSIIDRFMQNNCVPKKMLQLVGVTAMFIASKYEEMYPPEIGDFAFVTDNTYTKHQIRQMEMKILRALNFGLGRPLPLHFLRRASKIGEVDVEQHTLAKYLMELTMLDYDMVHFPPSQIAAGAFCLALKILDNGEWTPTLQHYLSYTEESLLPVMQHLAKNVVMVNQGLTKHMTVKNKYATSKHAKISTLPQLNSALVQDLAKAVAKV
Chain of CDK4 (P11802 whole entry): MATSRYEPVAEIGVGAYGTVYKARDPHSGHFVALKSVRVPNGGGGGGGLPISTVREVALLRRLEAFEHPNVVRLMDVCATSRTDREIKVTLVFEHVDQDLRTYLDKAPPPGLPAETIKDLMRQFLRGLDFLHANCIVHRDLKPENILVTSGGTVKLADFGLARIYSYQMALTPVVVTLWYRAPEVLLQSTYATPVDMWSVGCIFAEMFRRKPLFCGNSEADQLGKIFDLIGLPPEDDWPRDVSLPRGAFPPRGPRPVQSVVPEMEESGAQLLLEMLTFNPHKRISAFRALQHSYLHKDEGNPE
Chain of CDK4 (P24385 whole entry partner): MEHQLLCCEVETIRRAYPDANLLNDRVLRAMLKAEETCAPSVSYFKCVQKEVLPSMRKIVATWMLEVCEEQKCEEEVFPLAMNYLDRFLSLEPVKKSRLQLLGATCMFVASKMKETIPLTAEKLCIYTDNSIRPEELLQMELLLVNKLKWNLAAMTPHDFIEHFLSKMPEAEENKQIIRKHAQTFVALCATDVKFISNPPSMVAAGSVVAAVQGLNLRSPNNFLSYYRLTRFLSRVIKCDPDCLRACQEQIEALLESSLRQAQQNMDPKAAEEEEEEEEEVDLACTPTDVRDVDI
Chain of CDK9 (P50750 whole entry): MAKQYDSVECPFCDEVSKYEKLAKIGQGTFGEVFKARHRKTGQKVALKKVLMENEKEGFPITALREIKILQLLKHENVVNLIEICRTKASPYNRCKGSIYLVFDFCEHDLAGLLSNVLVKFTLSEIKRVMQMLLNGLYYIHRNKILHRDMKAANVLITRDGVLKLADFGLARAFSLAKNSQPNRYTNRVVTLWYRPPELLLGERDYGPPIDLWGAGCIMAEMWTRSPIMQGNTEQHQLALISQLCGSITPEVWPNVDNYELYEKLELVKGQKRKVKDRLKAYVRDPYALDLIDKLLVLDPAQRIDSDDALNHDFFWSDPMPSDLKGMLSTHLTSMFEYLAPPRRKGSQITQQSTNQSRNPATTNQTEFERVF
Chain of CDK9 (O60563 whole entry partner): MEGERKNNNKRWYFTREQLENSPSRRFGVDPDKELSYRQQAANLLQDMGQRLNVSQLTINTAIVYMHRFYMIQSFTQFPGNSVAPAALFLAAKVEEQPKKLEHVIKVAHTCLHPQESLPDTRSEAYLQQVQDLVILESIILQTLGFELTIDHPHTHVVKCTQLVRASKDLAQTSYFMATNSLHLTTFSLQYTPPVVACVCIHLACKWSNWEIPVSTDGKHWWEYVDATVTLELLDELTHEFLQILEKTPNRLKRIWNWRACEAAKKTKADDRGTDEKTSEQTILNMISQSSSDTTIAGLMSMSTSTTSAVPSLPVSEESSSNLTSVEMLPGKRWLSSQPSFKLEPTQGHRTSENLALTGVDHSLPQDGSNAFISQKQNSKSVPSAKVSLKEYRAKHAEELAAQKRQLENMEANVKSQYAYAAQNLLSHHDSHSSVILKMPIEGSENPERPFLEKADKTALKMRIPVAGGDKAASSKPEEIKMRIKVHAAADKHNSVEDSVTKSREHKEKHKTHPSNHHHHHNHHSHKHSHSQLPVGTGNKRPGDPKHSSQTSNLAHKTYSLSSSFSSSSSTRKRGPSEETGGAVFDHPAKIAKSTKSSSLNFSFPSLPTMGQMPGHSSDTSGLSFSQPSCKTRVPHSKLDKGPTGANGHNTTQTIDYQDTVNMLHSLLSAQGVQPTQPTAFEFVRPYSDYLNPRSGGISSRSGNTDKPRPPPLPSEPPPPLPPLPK

## CC(C)c1nn(-c2c(Cl)cncc2Cl)c2nc(Cc3ccc(CN4CCCC4)c(O)c3)[nH]c(=O)c12 [Compound I, 1-(3,5-dichloropyridin-4-yl)-6-(3-hydroxy-4-pyrrolidinomethyl-phenyl)methyl-3-isopropyl-pyrazolo[3,4-d]pyrimidin-4-one]
[1]; COLO 205, Colo205 cells
  IC50: ~0.1 µM
[1]; HCT-116, HCT116 cells
  IC50: ~0.1 µM
[1]; RPMI-8226, RPMI8226 cells
  IC50: ~0.1 µM
[1]; A2780 cells
  IC50: ~0.1 µM
[1]; MDA-MB-468 cells
  IC50: ~0.1 µM
[1]; Sk-mel-28 cells
  IC50: ~0.1 µM
Sk-mel-28
  IC50: ~0.3 µM
HCT116
  IC50: ~0.1 µM
[2]; HCT116, 31.6 [29.5] mg/kg po qdx10
  LCK ± CI (95%) (Td: 6.8 d): 0.21 ± 0.08 and 0.21
[2]; HCT116, 31.6 [29.5] mg/kg po qdx10, day 32
  Max % TGI (d): 32.7 (32) %
[2]; HCT116, 63.3 [59.1] mg/kg po qdx10
  LCK ± CI (95%) (Td: 6.8 d): 0.51 ± 0.17 and 0.51
[2]; HCT116, 63.3 [59.1] mg/kg po qdx10, day 16
  Max % BW Loss (d): 3.2 (16) %
[2]; HCT116, 63.3 [59.1] mg/kg po qdx10, day 32
  Max % TGI (d): 58.5 (32) %
[2]; HCT116, 95 [89] mg/kg po qdx10
  LCK ± CI (95%) (Td: 6.8 d): 0.60 ± 0.17 and 0.60
  Toxic Mortality: 1/10
[2]; HCT116, 95 [89] mg/kg po qdx10, day 20
  Max % TGI (d): 68.4 (20) %
[2]; mouse, in vivo, po
  Max % BW Loss (d): 10.2 (16) %
CDK9
  IC50: 1 to 10 nM
Panel of non-CDK kinases
  inhibitory activity against non-CDK kinases: low inhibitory activity
Colo205
  IC50: ~0.1 µM
[3]; COLO 205, Colo205 cells
  IC50: ~1 µM
[3]; HCT-116, HCT116 cells
  IC50: ~3 µM
[3]; RPMI-8226, RPMI8226 cells
  IC50: > 1 µM
[3]; A549 cells
  IC50: > 1 µM
[3]; A2780 cells
  IC50: ~1 µM
[3]; MDA-MB-435 cells
  IC50: ~0.5 µM
[3]; MDA-MB-453 cells
  IC50: ~1 µM
[3]; Raji cells
  IC50: > 1 µM
CDK4
  IC50: ~50 nM
MDA-MB-468
  IC50: ~0.3 µM
[4]
  IC50: 10 to 800 nM
CDK1
  IC50: 10 to 50 nM
[5]; 32 [30] mg/kg po qdx10
  LCK ± CI (95%) (Td: 1.7 d): 0.44 ± 0.24 and 0.44
[5]; 32 [30] mg/kg po qdx10, N=10
  Toxic Mortality: 0
[5]; 32 [30] mg/kg po qdx10, day 11
  Max % TGI (d): 52.2 (11) %
[5]; 63 [59] mg/kg po qdx10
  LCK ± CI (95%) (Td: 1.7 d): 0.93 ± 0.39 and 0.93
[5]; 63 [59] mg/kg po qdx10, N=10
  Toxic Mortality: 0
[5]; 63 [59] mg/kg po qdx10, day 11
  Max % TGI (d): 67.3 (11) %
[5]; 95 [89] mg/kg po qdx7
  LCK ± CI (95%) (Td: 1.7 d): 2.16 ± 0.44 and 2.16
  Toxic Mortality: 1/10
[5]; 95 [89] mg/kg po qdx7, day 11
  Max % TGI (d): 86.2 (11) %
H460 NSCLC; 32 [30] mg/kg po qdx10, N=10
  Toxic Mortality: 0
H460 NSCLC; 32 [30] mg/kg po qdx10
  Max % TGI (d): 30.7 (13) %
H460 NSCLC; 63 [59] mg/kg po qdx10
  LCK ± CI (95%) (Td: 2.6 d): 0.48 ± 0.15 and 0.48
  Max % TGI (d): 43.1 (13) %
H460 NSCLC; 63 [59] mg/kg po qdx10, N=10
  Toxic Mortality: 0
H460 NSCLC; 95 [89] mg/kg po qdx10
  LCK ± CI (95%) (Td: 2.6 d): 0.97 ± 0.25 and 0.97
  Toxic Mortality: 2/10
  Max % TGI (d): 57.1 (13) %

Source: US8304418B2, “Pyrazolopyrimidinone kinase inhibitor” (Agennix AG, priority 2007, dated 2012)
